Assay [1] has as its target Recombinant human Cbl-b (aa 36-427) (Homo sapiens (Human), UniProt Q13191). Description: Cbl-b Biochemical Assay (TR-FRET). Conditions: read-out: TR-FRET hCbl-b IC50. A digest of the protocol:
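IC50 from 4-parameter fit of % inhibition (DMSO max, reference-inhibitor min), duplicate ten-point series. Compound preincubated with 6 nM Cbl-b, then Src-Zap70 (1-2.5 nM)/0.5 mM ATP reaction 60 min RT; EDTA quench with labelled UBE2D2-Ub and streptavidin-terbium, 60 min, HTRF at 520 nm.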

In assay [2] the test system is Jurkat (clone E6-1) cells, NFAT luciferase reporter. Kind of assay: Jurkat Reporter Assay (NFAT Luciferase). It is filed as cell-based. Conditions: Homo sapiens, anti-CD3 stimulation, 6 hr, read-out: Jurkat NFAT EC50.
For assay [3], the system named is Phospho-Zap70 (Y-319) in Jurkat wild-type (clone E6-1) cells. Kind of assay: Jurkat pZAP70 HTRF Assay. It is filed as cell-based. Conditions: Homo sapiens, anti-CD3 5 μg/ml, 3 hr, read-out: ZAP70 Jurkat EC50.

Chain of Recombinant human Cbl-b (aa 36-427) (Q13191 36-427): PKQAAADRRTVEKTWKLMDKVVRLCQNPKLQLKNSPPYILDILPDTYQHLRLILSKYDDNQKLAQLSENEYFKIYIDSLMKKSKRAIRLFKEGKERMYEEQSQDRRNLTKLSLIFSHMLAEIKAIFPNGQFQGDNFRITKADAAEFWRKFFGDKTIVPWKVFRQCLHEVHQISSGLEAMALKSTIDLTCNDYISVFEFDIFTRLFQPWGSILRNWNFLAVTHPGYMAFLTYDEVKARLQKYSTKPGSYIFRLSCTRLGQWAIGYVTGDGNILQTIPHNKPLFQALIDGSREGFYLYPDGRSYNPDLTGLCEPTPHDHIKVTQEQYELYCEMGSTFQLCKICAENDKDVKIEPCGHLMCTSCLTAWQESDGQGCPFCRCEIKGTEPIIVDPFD

As for `CCNc1cc(-c2ccc(C#N)cc2-c2nncn2C)cc(N2Cc3c(cc(CNC4CCCC4=O)cc3C(F)(F)F)C2=O)n1` (stereo not drawn) [AGC-5, 4-[2-(Ethylamino)-6-(1-oxo-6-{[(2-oxocyclopentyl)amino]methyl}-4-(trifluoromethyl)-3H-isoindol-2-yl)pyridin-4-yl]-3-(4-methyl-1,2,4-triazol-3-yl)benzonitrile], in assay [1], the IC50 was no more than 200 nM. For the same molecule, the EC50 is less than 200 nM in assay [2] and 200 to 1000 nM in assay [3].

For `CCNc1cc(-c2ccc(C#N)cc2-c2nncn2C)cc(N2Cc3c(cc(CNCCOC4CC4)cc3C(F)(F)F)C2=O)n1` [AGD-2, 4-[2-(6-{[(2-Cyclopropoxyethyl)amino]methyl}-1-oxo-4-(trifluoromethyl)-3H-isoindol-2-yl)-6-(ethylamino)pyridin-4-yl]-3-(4-methyl-1,2,4-triazol-3-yl)benzonitrile], the IC50 in assay [1] was no more than 200 nM. In addition, the EC50 in assay [2] and in assay [3] was less than 200 nM in each case.

Consider `CCNc1cc(-c2ccc(F)cc2-c2nncn2C)cc(N2Cc3c(cc(COCCO)cc3C(F)(F)F)C2=O)n1` [AGE-3, 2-[6-(Ethylamino)-4-[4-fluoro-2-(4-methyl-1,2,4-triazol-3-yl)phenyl]pyridin-2-yl]-6-[(2-hydroxyethoxy)methyl]-4-(trifluoromethyl)-3H-isoindol-1-one], for which the IC50 in assay [1] is no more than 200 nM. Also, the EC50 in assay [2] and in assay [3] was less than 200 nM in each case.

With `CCNc1cc(-c2c(-c3nncn3C)cnn2C)cc(N2Cc3c(cc(COCC4(N)CCC4)cc3C(F)(F)F)C2=O)n1` [AGF-3, 6-{[(1-Aminocyclobutyl)methoxy]methyl}-2-[6-(ethylamino)-4-[2-methyl-4-(4-methyl-1,2,4-triazol-3-yl)pyrazol-3-yl]pyridin-2-yl]-4-(trifluoromethyl)-3H-isoindol-1-one], the IC50 in assay [1] is no more than 200 nM. Further, the EC50 in assay [2] fell in the range of 200 to 1000 nM; in assay [3], 1000 to 10000 nM.

As to `Cn1cnnc1-c1cc(F)ccc1-c1cc(C2CC2)nc(N2Cc3c(cc(COCC4(N)CCC4)cc3C(F)(F)F)C2=O)c1` [AGG-2, 6-{1[(1-Aminocyclobutyl)methoxy]methyl}-2-{6-cyclopropyl-4-[4-fluoro-2-(4-methyl-1,2,4-triazol-3-yl)phenyl]pyridin-2-yl}-4-(trifluoromethyl)-3H-isoindol-1-one], in assay [1], the IC50 is no more than 200 nM. The EC50 in assay [2] and in assay [3] was less than 200 nM in each case.

Regarding `Cn1cnnc1-c1cc(F)ccc1-c1cc(C2CC2)nc(N2Cc3ccc(CO)cc3C2=O)c1` [AGH-2, 2-{6-Cyclopropyl-4-[4-fluoro-2-(4-methyl-1,2,4-triazol-3-yl)phenyl]pyridin-2-yl}-6-(hydroxymethyl)-3H-isoindol-1-one], in assay [1], the IC50 is no more than 200 nM. Moreover, the EC50 is less than 200 nM in assay [2] and 1000 to 10000 nM in assay [3].

With `Cn1cnnc1-c1cc(F)ccc1-c1cc(C2CC2)nc(N2Cc3ccc(COCC4(N)CCC4)cc3C2=O)c1` [AGI-3, 6-{1[(1-Aminocyclobutyl)methoxy]methyl}-2-{6-cyclopropyl-4-[4-fluoro-2-(4-methyl-1,2,4-triazol-3-yl)phenyl]pyridin-2-yl}-3H-isoindol-1-one], the IC50 in assay [1] is no more than 200 nM. In addition, the EC50 in assay [2] and in assay [3] was less than 200 nM throughout.

For the molecule `CCNc1cc(-c2ccc(C#N)cc2-c2nncn2C)cc(N2Cc3c(cc(COCC4(N)CCC4)cc3C(F)(F)F)C2=O)n1` [AGJ-2, 4-[2-(6-{[(1-aminocyclobutyl)methoxy]methyl}-1-oxo-4-(trifluoromethyl)-3H-isoindol-2-yl)-6-(ethylamino)pyridin-4-yl]-3-(4-methyl-1,2,4-triazol-3-yl)benzonitrile], the IC50 in assay [1] is no more than 200 nM. Moreover, the EC50 in assay [2] is less than 200 nM; in assay [3] it was 1000 to 10000 nM.

Turning to `Cn1cnnc1-c1cc(C#N)ccc1-c1cc(C2CC2)nc(N2Cc3c(cc(C4(O)CCC4)cc3C(F)(F)F)C2=O)c1` [AGM-5, 4-{2-Cyclopropyl-6-[6-(1-hydroxycyclobutyl)-1-oxo-4-(trifluoromethyl)-3H-isoindol-2-yl]pyridin-4-yl}-3-(4-methyl-1,2,4-triazol-3-yl)benzonitrile], in assay [1], the IC50 was no more than 200 nM. Also, the figures for the EC50 in assay [2] and in assay [3] were less than 200 nM and 200 to 1000 nM, respectively.

Consider `Cn1cnnc1-c1cc(C#N)ccc1-c1cc(C2CC2)nc(N2Cc3c(cc(CNCCOC(F)(F)F)cc3C(F)(F)F)C2=O)c1` [AGN-3, 4-{2-Cyclopropyl-6-[1-oxo-6-({[2-(trifluoromethoxy)ethyl]amino}methyl)-4-(trifluoromethyl)-3H-isoindol-2-yl]pyridin-4-yl}-3-(4-methyl-1,2,4-triazol-3-yl)benzonitrile], for which the IC50 in assay [1] was no more than 200 nM. The EC50 in assay [2] is less than 200 nM; in assay [3] it was 200 to 1000 nM.

Consider `COCCNCc1ccc2c(c1)C(=O)N(c1cc(-c3ccc(C#N)cc3-c3nncn3C)cc(C3CC3)n1)C2` [AGO-2, 4-(2-Cyclopropyl-6-(6-(((2-methoxyethyl)amino)methyl)-1-oxoisoindolin-2-yl)pyridin-4-yl)-3-(4-methyl-4H-1,2,4-triazol-3-yl)benzonitrile], for which the IC50 in assay [1] is no more than 200 nM. Besides, the EC50 in assay [2] and in assay [3] was less than 200 nM throughout.

Consider `Cn1cnnc1-c1cc(F)ccc1-c1cc(C2CC2)nc(N2Cc3ccc(CNCC4(O)CCCC4)cc3C2=O)c1` [AGP-1, 2-{6-Cyclopropyl-4-[4-fluoro-2-(4-methyl-1,2,4-triazol-3-yl)phenyl]pyridin-2-yl}-6-({[(1-hydroxycyclopentyl)methyl]amino}methyl)-3H-isoindol-1-one], for which the IC50 in assay [1] was no more than 200 nM. In addition, the EC50 in assay [2] was less than 200 nM; in assay [3] it was 200 to 1000 nM.

On to `CCOc1cc(-c2ccc(F)cc2-c2nncn2C)cc(N2Cc3c(cc(CNCC4(O)CCC4)cc3C(F)(F)F)C2=O)n1` [AGQ-2, 2-{6-Ethoxy-4-[4-fluoro-2-(4-methyl-1,2,4-triazol-3-yl)phenyl]pyridin-2-yl}-6-({[(1-hydroxycyclobutyl)methyl]amino}methyl)-4-(trifluoromethyl)-3H-isoindol-1-one], for which the IC50 in assay [1] was no more than 200 nM. The EC50 in assay [2] was less than 200 nM; in assay [3] it was 200 to 1000 nM.

As to `CCOc1cc(-c2ccc(F)cc2-c2nncn2C)cc(N2Cc3ccc(CNCC4(O)CCC4)cc3C2=O)n1` [AGR-1, 2-{6-Ethoxy-4-[4-fluoro-2-(4-methyl-1,2,4-triazol-3-yl)phenyl]pyridin-2-yl}-6-({[(1-hydroxycyclobutyl)methyl]amino}methyl)-3H-isoindol-1-one], the IC50 in assay [1] was no more than 200 nM. Also, the EC50 in assay [2] and in assay [3] was less than 200 nM each time.

Take `CCNc1cc(-c2ccc(F)cc2-c2nncn2C)cc(N2Cc3c(cc(COCC4(N)CCC4)cc3C(F)(F)F)C2=O)n1` [AGS-2]: in assay [1], the IC50 was no more than 200 nM. For the same molecule, the EC50 in assay [2] and in assay [3] was less than 200 nM in each case.

On to `Cn1cnnc1-c1cc(C#N)ccc1-c1cc(C2CC2)nc(N2Cc3ccc(CNCCOC(F)(F)F)cc3C2=O)c1` [AGT-3, 4-{2-Cyclopropyl-6-[1-oxo-6-({[2-(trifluoromethoxy)ethyl]amino}methyl)-3H-isoindol-2-yl]pyridin-4-yl}-3-(4-methyl-1,2,4-triazol-3-yl)benzonitrile], for which the IC50 in assay [1] is no more than 200 nM. For the same molecule, the EC50 in assay [2] and in assay [3] was less than 200 nM each time.

Source of the values: patent US12325697B2 (Nimbus Clio, Inc., priority 2021, dated 2025).
